Assay results taken from patent US20250270200A1, “CTPS1 INHIBITORS AND USES THEREOF” (Nimbus Clotho, Inc., priority 2022, published 2025).

molecular target: T1, human CTPS1 (Homo sapiens, UniProt P17812); assay: ADP-Glo assay, human CTPS1 enzyme inhibition; format: biochemical; conditions: wild-type human CTPS1, 25 nM enzyme; ADP-Glo; read-out: ADP-Glo_WT_hCTPS1—25 nM_IC50 (IC50)
T1 sequence (P17812 1-591): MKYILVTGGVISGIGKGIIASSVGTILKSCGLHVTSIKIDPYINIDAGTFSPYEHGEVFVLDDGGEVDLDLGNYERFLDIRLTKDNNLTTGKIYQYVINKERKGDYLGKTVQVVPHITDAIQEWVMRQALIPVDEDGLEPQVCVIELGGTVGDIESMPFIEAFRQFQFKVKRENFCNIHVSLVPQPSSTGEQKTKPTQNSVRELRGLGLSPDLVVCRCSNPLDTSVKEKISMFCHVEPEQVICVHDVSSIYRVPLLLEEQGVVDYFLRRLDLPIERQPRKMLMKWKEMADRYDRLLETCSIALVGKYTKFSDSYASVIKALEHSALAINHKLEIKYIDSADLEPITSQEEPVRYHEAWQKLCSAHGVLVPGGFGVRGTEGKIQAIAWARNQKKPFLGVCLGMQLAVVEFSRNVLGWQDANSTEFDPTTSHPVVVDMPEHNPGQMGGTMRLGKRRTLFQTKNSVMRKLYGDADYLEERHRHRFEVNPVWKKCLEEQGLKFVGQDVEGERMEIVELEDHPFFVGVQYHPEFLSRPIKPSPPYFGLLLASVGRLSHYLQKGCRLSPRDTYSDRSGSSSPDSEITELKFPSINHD
How it was run: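 Full-length tagged human CTPS1 (25 nM) pre-incubated 10 min at 25° C with compound, then 10 min with ATP (120 μM) and UTP (160 μM); reaction started with L-glutamine (100 μM) and GTP (60 μM), 1% DMSO, in HEPES pH 7.4, 10 mM Mg2+, 5 mM KCl, 2 mM DTT. Run within linear phase at 25° C; ADP measured by ADP-Glo luminescence.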

IC50	Structure (SMILES)
0.005 to 0.025 µM	CCOc1cncc(-c2cnc(C(=O)N[C@@H](c3cccc(NS(=O)(=O)C(F)F)c3)[C@H]3COCCO3)s2)n1 [I-201, N-((S)-(3-((difluoromethyl)sulfonamido)phenyl)((S)-1,4-dioxan-2-yl)methyl)-5-(6-ethoxypyrazin-2-yl)thiazole-2-carboxamide]
0.005 to 0.025 µM	CCOc1cncc(-c2cnc(C(=O)N[C@@H](c3cc(NS(=O)(=O)C4CC4)ccn3)[C@@H]3CC(=O)N(C)C3)s2)n1 [I-121, N-((R)-(4-(cyclopropanesulfonamido)pyridin-2-yl)((R)-1-methyl-5-oxopyrrolidin-3-yl)methyl)-5-(6-ethoxypyrazin-2-yl)thiazole-2-carboxamide]
≤ 0.005 µM	CCOc1cncc(-c2cnc(C(=O)N[C@@H](C[C@H]3CCCCN3C(C)C)c3cc(NS(=O)(=O)C4CC4)ccn3)s2)n1 (single isomer, unassigned) [I-28]
0.025 to 0.05 µM	CCOc1cncc(-c2cnc(C(=O)N[C@H](CN3CC[C@@](C)(O)C3)c3cccc(NS(=O)(=O)C(F)F)c3)s2)n1 [I-207, N-((S)-1-(3-((difluoromethyl)sulfonamido)phenyl)-2-((R)-3-hydroxy-3-methylpyrrolidin-1-yl)ethyl)-5-(6-ethoxypyrazin-2-yl)thiazole-2-carboxamide]
0.005 to 0.025 µM	CCOc1cncc(-c2cnc(C(=O)N[C@H](c3cc(NS(=O)(=O)C4CC4)ncn3)[C@@H]3CCOC3)s2)n1 [I-256, N-((S)-(6-(cyclopropanesulfonamido)pyrimidin-4-yl)((S)-tetrahydrofuran-3-yl)methyl)-5-(6-ethoxypyrazin-2-yl)thiazole-2-carboxamide]
0.05 to 0.1 µM	CCOc1cncc(-c2ccc(C(=O)N[C@H](COC)c3cc(NS(=O)(=O)C4CC4)ccn3)c(F)c2)n1 [I-283, (S)-N-(1-(4-(cyclopropanesulfonamido)pyridin-2-yl)-2-methoxyethyl)-4-(6-ethoxypyrazin-2-yl)-2-fluorobenzamide]
> 0.1 µM	CCOc1cncc(-c2cnc(C(=O)N(C)[C@H](c3cc(NS(=O)(=O)C4CC4)ccn3)[C@H]3CCOC3)s2)n1 [I-63, N-((S)-(4-(cyclopropanesulfonamido)pyridin-2-yl)((R)-tetrahydrofuran-3-yl)methyl)-5-(6-ethoxypyrazin-2-yl)-N-methylthiazole-2-carboxamide]
0.005 to 0.025 µM	C[C@H](CN1CCCCC1)[C@H](NC(=O)c1ncc(-c2cnn3ccc(Cl)cc23)s1)c1cc(NS(=O)(=O)C2CC2)ccn1 [I-57, 5-(5-chloropyrazolo[1,5-a]pyridin-3-yl)-N-((1S,2R)-1-(4-(cyclopropanesulfonamido)pyridin-2-yl)-2-methyl-3-(piperidin-1-yl)propyl)thiazole-2-carboxamide]
0.005 to 0.025 µM	CCOc1cncc(-c2cnc(C(=O)N[C@@H](c3cc(NS(=O)(=O)C4CC4)ccn3)[C@@H]3CN(C)CCO3)s2)n1 [I-101, N-((S)-(4-(cyclopropanesulfonamido)pyridin-2-yl)((S)-4-methylmorpholin-2-yl)methyl)-5-(6-ethoxypyrazin-2-yl)thiazole-2-carboxamide]
0.005 to 0.025 µM	CCOc1cncc(-c2cnc(C(=O)N[C@@H](COC)c3cccc(NS(=O)(=O)C(F)F)c3)s2)n1 [I-293, (R)-N-(1-(3-((difluoromethyl)sulfonamido)phenyl)-2-methoxyethyl)-5-(6-ethoxypyrazin-2-yl)thiazole-2-carboxamide]
0.05 to 0.1 µM	CCOc1cncc(-c2cnc(C(=O)N[C@H](CC(C)(C)N(C)C)c3cc(NS(=O)(=O)C4CC4)ccn3)s2)n1 [I-49, (R)-N-(1-(4-(cyclopropanesulfonamido)pyridin-2-yl)-3-(dimethylamino)-3-methylbutyl)-5-(6-ethoxypyrazin-2-yl)thiazole-2-carboxamide]
0.005 to 0.025 µM	CCOc1cncc(-c2cnc(C(=O)N[C@H](CN3CCN(C)C(=O)C3)c3cc(NS(=O)(=O)C4CC4)ccn3)s2)n1 [I-148, (R)-N-(1-(4-(cyclopropanesulfonamido)pyridin-2-yl)-2-(4-methyl-3-oxopiperazin-1-yl)ethyl)-5-(6-ethoxypyrazin-2-yl)thiazole-2-carboxamide]
